Reference: PubChem BioAssay (NCI)
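Compound exposure: 48 hours, 5 concentrations, 96-well plates. GI50 is the concentration that inhibits growth by half. At the TGI there is no net growth.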

Assays:
Test in all cases: NCI-60 cell line screen, 48 h
EKVX NSCLC = system: EKVX NSCLC
LOX IMVI melanoma = system: LOX IMVI melanoma
MALME-3M melanoma = system: MALME-3M melanoma
NCI-H522 lung = system: NCI-H522 lung
SF-539 CNS = system: SF-539 CNS
SK-OV-3 ovarian = system: SK-OV-3 ovarian
SW-620 colon = system: SW-620 colon
TK-10 renal = system: TK-10 renal
UACC-257 melanoma = system: UACC-257 melanoma
MDA-MB-435 = system: MDA-MB-435

SMILES	TGI (EKVX NSCLC)	TGI (LOX IMVI melanoma)	TGI (MALME-3M melanoma)	TGI (NCI-H522 lung)	TGI (SF-539 CNS)	TGI (SK-OV-3 ovarian)	TGI (SW-620 colon)	TGI (TK-10 renal)	TGI (UACC-257 melanoma)	GI50 (LOX IMVI melanoma)	GI50 (MDA-MB-435)	TGI (MDA-MB-435)	GI50 (SF-539 CNS)	GI50 (SK-OV-3 ovarian)	GI50 (TK-10 renal)	GI50 (UACC-257 melanoma)	GI50 (NCI-H522 lung)	GI50 (SW-620 colon)	GI50 (EKVX NSCLC)	GI50 (MALME-3M melanoma)
CC(=O)SCCC1c2[nH]c3ccccc3c2CCN1O (configuration not stated)	> 100 µM	> 100 µM	> 100 µM	> 100 µM	> 100 µM	> 100 µM	> 100 µM	> 100 µM	> 100 µM											
CCC(C)(O)c1cn(-c2cccc(S(=O)(=O)O)c2)nn1 (configuration not stated)	> 100 µM	> 100 µM	> 100 µM	> 100 µM	> 100 µM	> 100 µM	> 100 µM	> 100 µM	> 100 µM											
CCCCn1c(-c2ccc(C(=O)O/N=C(\N)c3ccc(OC)cc3)cc2)nc(-c2ccccc2)c1-c1ccccc1		0.342 µM			3.24 µM	> 100 µM		3.38 µM	> 100 µM	0.181 µM	1.74 µM	3.28 µM	1.67 µM	3.76 µM	1.76 µM	3.61 µM				
COc1ccc(C(=O)O)c(Cc2cccc3ccccc23)c1	> 100 µM	> 100 µM	> 100 µM	> 100 µM		> 100 µM	> 100 µM	> 100 µM	> 100 µM											
Cc1ccc(NC(=O)C2C(=O)N(c3ccc(C)c(C)c3)C(=O)/C2=N/O)cc1C (configuration not stated)	> 100 µM	38.3 µM	> 100 µM	> 100 µM	> 100 µM	> 100 µM	37.2 µM	> 100 µM	> 100 µM											
C[C@]12CC[C@@H]3c4ccc(Oc5nc(N6CC6)nc(N6CC6)n5)cc4CC[C@H]3[C@@H]1CCC2=O		3.1 µM		4.57 µM	7.43 µM	13.9 µM	18.5 µM		17.5 µM	1.37 µM	5.43 µM	22 µM	2.2 µM	3.31 µM		2.89 µM	1.91 µM	2.26 µM		
Nc1c(-c2ccc(Br)cc2)[n+]([O-])c2ccccc2[n+]1[O-]	> 100 µM		> 100 µM	> 100 µM	> 100 µM	> 100 µM	> 100 µM		> 100 µM											
COC(=O)CSc1n[nH]c(-c2ccc(O)c([N+](=O)[O-])c2)n1	> 100 µM	> 100 µM	> 100 µM		> 100 µM		> 100 µM	> 100 µM	> 100 µM											
CCOC(=O)NC(=O)c1cn(CCCOC(=O)NCCCCCCNC(=O)OCCCn2c(=O)c(C(=O)NC(=O)OCC)cn(C)c2=O)c(=O)n(C)c1=O		> 100 µM	> 100 µM	> 100 µM		> 100 µM	> 100 µM	> 100 µM	> 100 µM											
O=C1C2=C(CC3C(C2)C3(Br)Br)C(=O)C2=C1CC1C(C2)C1(Br)Br (configuration not stated)	> 100 µM	> 100 µM	> 100 µM	> 100 µM	> 100 µM	> 100 µM		> 100 µM	> 100 µM											
N#Cc1cnsc1	> 100 µM	> 100 µM	> 100 µM		> 100 µM	> 100 µM	> 100 µM	> 100 µM	> 100 µM											
NCCCNCCSSCCCCS(=O)O	> 100 µM	21.6 µM	49.2 µM	32.3 µM	> 100 µM	> 100 µM	> 100 µM	> 100 µM	78.5 µM											
Cc1ccc(N=NC(C(=O)c2ccccc2)C(=O)c2ccccc2)cc1	> 100 µM		> 100 µM	44.3 µM	97.3 µM	96 µM	> 100 µM	> 100 µM	> 100 µM											
CCCCCCCCCCCCCCCCOP(=O)(O)Oc1ccc(/C=C\c2ccc(OP(=O)(O)OCCCCCCCCCCCCCCCC)cc2)cc1	> 100 µM	> 100 µM	> 100 µM	> 100 µM		> 100 µM	> 100 µM	72.4 µM	> 100 µM											
Cc1cc(NS(=O)(=O)c2ccc(NC(=O)c3cccc4c(=O)c5ccccc5[nH]c34)cc2)no1	> 100 µM	> 100 µM	> 100 µM	56.6 µM	> 100 µM	72.7 µM	> 100 µM	> 100 µM	> 100 µM											
CC(C)=[CH][Sb]([Br])([CH]=C(C)C)([CH]=C(C)C)[CH]=C(C)C	88.6 µM	> 100 µM	> 100 µM	20.2 µM		8.83 µM	> 100 µM	> 100 µM	> 100 µM	31.6 µM				2.5 µM	34.9 µM	4.87 µM	1.5 µM	26.4 µM	4.88 µM	5.28 µM
Cc1ccc(C(=O)/C=C/c2ccccc2O)c(C)c1	> 100 µM	> 100 µM	> 100 µM	> 100 µM	> 100 µM	> 100 µM	> 100 µM	> 100 µM	> 100 µM											
